Measurements: US9776979B2, “EBI2 modulators” (Sanford-Burnham Medical Research Institute, priority 2013, dated 2017)

Target: EBI2 (Homo sapiens, UniProt P32249)
Assay: Cell-based luminescent assay (EBI2 modulation)
Details: cell-based luminescence; 7a,25-OHC final assay concentration 80 nM; 60 minutes incubation; read-out: IC50
Protocol: Cell-Based Luminescent Assay
To assess EBI2 modulation, the compounds described herein were assayed in the following cell-based luminescent assay:
1) Plated 600 cells/well in 4 uL of assay media into columns 1-48 of a 1536-well assay plate, using a liquid dispenser.
2) Centrifuged plates at 1000 rpm for 1 minute and covered with lids.
3) Incubated overnight at 37° C., 100% relative humidity, 5% CO2.
1) Centrifuged compound plates containing compounds described herein at 500 rpm for 1 minute.
2) Added compounds into assay plate col 5-48 to final concentration 4-5 uM. Added matching amount of DMSO to positive and negative control wells in columns 1-4.
3) Dispensed 2 ul/well of assay media to columns 1-2 for the positive control wells.
4) Added 2 ul/well of 400 nM 7a,25-OHC (final assay concentration=80 nM) in assay media to columns 3-48 for the negative control and test compound wells.
5) Centrifuged plates at 1000 rpm for 1 minute and re-lid plates.
6) Incubated plates at 37° C., 100% relative humidity, 5% CO2 for 60 minutes.
7) Following 60 minute incubation, delivered 2.5 uL of Detection Reagent solution to each assay plate (Columns 1-48) using a liquid handler.
8) Centrifuged plates at 2000 rpm for 2 minutes and re-lid plates.
9) Incubated plates for 60 minutes at 25 degrees in the dark.
10) Read plates using the Viewlux, Envision or other suitable plate reader using a luminescence detection.
The experimental values were normalized by the difference between values from neutral and stimulator control wells in each plate. Then normalized data was corrected to remove systematic plate patterns due to artifacts such as dispensing tip issues etc.

EBI2, sequence (P32249 whole entry): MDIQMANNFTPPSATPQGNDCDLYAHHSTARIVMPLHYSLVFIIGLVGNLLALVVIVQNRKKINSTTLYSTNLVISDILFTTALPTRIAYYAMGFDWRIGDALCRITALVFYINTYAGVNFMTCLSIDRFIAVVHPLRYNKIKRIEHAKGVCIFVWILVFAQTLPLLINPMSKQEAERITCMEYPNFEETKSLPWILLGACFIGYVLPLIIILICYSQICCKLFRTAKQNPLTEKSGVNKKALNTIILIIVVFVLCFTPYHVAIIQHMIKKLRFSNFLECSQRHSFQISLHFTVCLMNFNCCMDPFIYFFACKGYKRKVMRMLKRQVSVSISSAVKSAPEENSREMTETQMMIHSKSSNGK

Row | Compound | IC50
1 | O=C(C#Cc1ccccc1C(F)(F)F)N1CCN(C(=O)c2ccc(C(F)(F)F)cc2)CC1 [Compound C169, 3-[2-(trifluoromethyl)phenyl]-1-(4-{[4-(trifluoromethyl)phenyl]carbonyl}piperazinyl)prop-2-yn-1-one] | 500 to 5000 nM
2 | O=C(Nc1ccc(F)cc1)c1cccc(CN2CCN(C(=O)c3cc4cc(Cl)ccc4[nH]3)CC2)c1 [Compound C187, [3-({4-[(5-chloroindol-2-yl)carbonyl]piperazinyl}methyl)phenyl]-N-(4-fluorophenyl)carboxamide] | 500 to 5000 nM
3 | 4-[(4-chlorophenyl)methyl]piperazinyl 2-(trifluoromethyl)benzimidazol-5-yl ketone [Compound C170] | 500 to 5000 nM
4 | 3-(3,4-dichlorophenyl)-1-{4-[(4-fluorophenyl)carbonyl]piperazinyl}prop-2-yn-1-one [Compound C93] | < 100 nM
5 | 4-(diphenylmethyl)piperazinyl 2-naphthyl ketone [Compound C101] | < 100 nM
6 | 4-{[4-fluoro-3-(trifluoromethyl)phenyl]methyl}piperazinyl 5-(trifluoromethyl)indol-2-yl ketone [Compound C415] | 100 to 500 nM
7 | (2E)-3-(4-bromophenyl)-1-(4-heptanoylpiperazinyl)prop-2-en-1-one [Compound C80] | < 100 nM
8 | O=C(C#Cc1cccc(Cl)c1)N1CCN(C(=O)c2ccc(F)cc2)CC1 [Compound C35, 3-(3-chlorophenyl)-1-{4-[(4-fluorophenyl)carbonyl]piperazinyl}prop-2-yn-1-one] | < 100 nM
9 | COc1ccc(C(=O)N2CCN(C(=O)C#Cc3cccc(Cl)c3)CC2)cc1 [Compound C59, 3-(3-chlorophenyl)-1-{4-[(4-methoxyphenyl)carbonyl]piperazinyl}prop-2-yn-1-one] | < 100 nM
10 | 3-(3,4-dichlorophenyl)-1-{4-[(4-chlorophenyl)methyl]piperazinyl}prop-2-yn-1-one [Compound C291] | 100 to 500 nM
11 | 4-[(3,5-dimethylphenyl)methyl]piperazinyl 5-methylindol-2-yl ketone [Compound C359] | 100 to 500 nM
12 | 4-{[4-((2E)-3-phenylprop-2-enoyl)piperazinyl]methyl}benzenecarbonitrile [Compound C335] | < 100 nM
13 | 4-{3-[4-(diphenylmethyl)piperazinyl]-3-oxoprop-1-ynyl}benzenecarbonitrile [Compound C326] | < 100 nM
14 | 1-{4-[(4-bromophenyl)methyl]piperazinyl}-3-(4-chlorophenyl)prop-2-yn-1-one [Compound C383] | < 100 nM
15 | O=C(/C=C/c1ccccc1)N1CCN(Cc2ccccn2)CC1 [Compound C191, (2E)-3-phenyl-1-[4-(2-pyridylmethyl)piperazinyl]prop-2-en-1-one] | 500 to 5000 nM
16 | 4-[(4-chlorophenyl)carbonyl]piperazinyl 5-(trifluoromethyl)indol-2-yl ketone [Compound C64] | < 100 nM
17 | O=C(/C=C/c1ccc(Br)cc1)N1CCN(S(=O)(=O)c2ccc(Br)cc2)CC1 [Compound C37, (2E)-3-(4-bromophenyl)-1-{4-[(4-bromophenyl)sulfonyl]piperazinyl}prop-2-en-1-one] | < 100 nM
18 | Cc1ccc(C#CC(=O)N2CCN(C(=O)c3ccc(Cl)cc3)CC2)cc1 [Compound C33, 1-{4-[(4-chlorophenyl)carbonyl]piperazinyl}-3-(4-methylphenyl)prop-2-yn-1-one] | < 100 nM
19 | O=C(c1cc2ccccc2[nH]1)N1CCN(C(c2ccccc2)c2ccccc2)CC1 [Compound C71, 4-(diphenylmethyl)piperazinyl indol-2-yl ketone] | < 100 nM
20 | Cc1ccc(C#CC(=O)N2CCN(C(=O)c3ccc(F)cc3)CC2)cc1 [Compound C38, 1-{4-[(4-fluorophenyl)carbonyl]piperazinyl}-3-(4-methylphenyl)prop-2-yn-1-one] | < 100 nM
21 | (2E)-1-(4-{[4-(tert-butyl)phenyl]sulfonyl}piperazinyl)-3-(4-bromophenyl)prop-2-en-1-one [Compound C150] | < 100 nM

Second part, the compound after the results:

Row | IC50 | Compound
22 | 100 to 500 nM | Cc1ccc(/C=C/C(=O)N2CCN(C(c3ccccc3)c3ccccc3)CC2)cc1 [Compound C453, (2E)-1-[4-(diphenylmethyl)piperazinyl]-3-(4-methylphenyl)prop-2-en-1-one]
23 | < 100 nM | O=C(c1cc2cc(Br)ccc2[nH]1)N1CCN(Cc2ccc(C(F)(F)F)cc2)CC1 [Compound C371, 5-bromoindol-2-yl 4-{[4-(trifluoromethyl)phenyl]methyl}piperazinyl ketone]
24 | < 100 nM | O=C(/C=C/c1ccc(Br)cc1)N1CCN(C(=O)c2cccc(B(O)O)c2)CC1 [Compound C267, (E)-(3-(4-(3-(4-bromophenyl)acryloyl)piperazine-1-carbonyl)phenyl)boronic acid]
25 | < 100 nM | O=C(C#Cc1ccc(Cl)c(Cl)c1)N1CCN(C(=O)c2ccc(C(F)(F)F)cc2)CC1 [Compound C249, 3-(3,4-dichlorophenyl)-1-(4-{[4-(trifluoromethyl)phenyl]carbonyl}piperazinyl)prop-2-yn-1-one]
26 | < 100 nM | O=C(c1ccc(C(F)(F)F)cc1)N1CCN(C(=O)c2cc3ccc(Cl)cc3[nH]2)CC1 [Compound C391, 6-chloroindol-2-yl 4-{[4-(trifluoromethyl)phenyl]carbonyl}piperazinyl ketone]
27 | < 100 nM | Cn1c(C(=O)N2CCN(C(c3ccccc3)c3ccccc3)CC2)cc2ccccc21 [Compound C242, 4-(diphenylmethyl)piperazinyl 1-methylindol-2-yl ketone]
28 | < 100 nM | COc1ccc(CN2CCN(C(=O)C#Cc3ccc(C)cc3)CC2)cc1 [Compound C236, 1-{4-[(4-methoxyphenyl)methyl]piperazinyl}-3-(4-methylphenyl)prop-2-yn-1-one]
29 | < 100 nM | O=C(/C=C/c1ccc(F)cc1)N1CCN(S(=O)(=O)c2cccc(F)c2)CC1 [Compound C212, (2E)-3-(4-fluorophenyl)-1-{4-[(3-fluorophenyl)sulfonyl]piperazinyl}prop-2-en-1-one]
30 | < 100 nM | 4-(diphenylmethyl)piperazinyl 6-fluoro(3-quinolyl) ketone [Compound C227]
31 | < 100 nM | N#Cc1cccc(C(=O)N2CCN(C(=O)c3cc4cc(Cl)ccc4[nH]3)CC2)c1 [Compound C395, 3-({4-[(5-chloroindol-2-yl)carbonyl]piperazinyl}carbonyl)benzenecarbonitrile]
32 | 100 to 500 nM | Cc1ccccc1/C=C/C(=O)N1CCN(S(=O)(=O)c2ccc(C(C)(C)C)cc2)CC1 [Compound C480, (2E)-1-(4-{[4-(tert-butyl)phenyl]sulfonyl}piperazinyl)-3-(2-methylphenyl)prop-2-en-1-one]
33 | 100 to 500 nM | O=C(c1cc2cc(Cl)ccc2[nH]1)N1CCN(Cc2cc(C(F)(F)F)cc(C(F)(F)F)c2)CC1 [Compound C423, 4-{[3,5-bis(trifluoromethyl)phenyl]methyl}piperazinyl 5-chloroindol-2-yl ketone]
34 | < 100 nM | COc1ccc(CN2CCN(C(=O)/C=C/c3ccccc3)CC2)cc1 [Compound C332, (2E)-1-{4-[(4-methoxyphenyl)methyl]piperazinyl}-3-phenylprop-2-en-1-one]
35 | 100 to 500 nM | COc1ccc(-c2ccc(S(=O)(=O)N3CCN(C(=O)c4cc5cc(Cl)ccc5[nH]4)CC3)cc2)cc1 [Compound C421, 5-chloroindol-2-yl 4-{[4-(4-methoxyphenyl)phenyl]sulfonyl}piperazinyl ketone]
36 | < 100 nM | O=C(c1cc2cc(Br)ccc2[nH]1)N1CCN(C(=O)c2ccc(F)cc2C(F)(F)F)CC1 [Compound C208, 5-bromoindol-2-yl 4-{[4-fluoro-2-(trifluoromethyl)phenyl]carbonyl}piperazinyl ketone]
37 | 100 to 500 nM | O=C(C#Cc1ccc(F)cc1)N1CCN(C(=O)c2ccc(F)cc2C(F)(F)F)CC1 [Compound C287, 3-(4-fluorophenyl)-1-(4-{[4-fluoro-2-(trifluoromethyl)phenyl]carbonyl}piperazinyl)prop-2-yn-1-one]
38 | 100 to 500 nM | O=C(C=Cc1ccc2c(c1)OCO2)N1CCN(C(=O)c2ccc(-c3nnn[nH]3)cc2)CC1 [Compound C457, 3-(2H-benzo[3,4-d]1,3-dioxolan-5-yl)-1-{4-[(4-(1H-1,2,3,4-tetraazol-5-yl)phenyl)carbonyl]piperazinyl}prop-2-en-1-one]
39 | < 100 nM | O=C(c1cccc(C(F)(F)F)c1)N1CCN(C(=O)c2cc3cc(C(F)(F)F)ccc3[nH]2)CC1 [Compound C271, 5-(trifluoromethyl)indol-2-yl 4-{[3-(trifluoromethyl)phenyl]carbonyl}piperazinyl ketone]
40 | < 100 nM | CC(C)(C)c1ccc(S(=O)(=O)N2CCN(C(=O)/C=C/c3ccc(Cl)c(Cl)c3)CC2)cc1 [Compound C334, (2E)-3-(3,4-dichlorophenyl)-1-(4-{[4-(tert-butyl)phenyl]sulfonyl}piperazinyl)prop-2-en-1-one]
41 | 100 to 500 nM | Cc1ccccc1/C=C/C(=O)N1CCN(S(=O)(=O)c2ccc(Br)cc2)CC1 [Compound C442, (2E)-1-{4-[(4-bromophenyl)sulfonyl]piperazinyl}-3-(2-methylphenyl)prop-2-en-1-one]
